The subject of the experiment is Escherichia coli 31. The experiment is described as follows: In vitro antimicrobial activity, two-fold agar-plate dilution method (MIC). In kind it is cell-based. To be noted: HI-agar, 37° C., 20 hours. The method, then:
Now in order to show the utility of the object compounds (I), the test data on the in vitro antimicrobial activity of some representative compounds (I) of this invention are shown in the following. Test: In vitro Antimicrobial Activity.
In vitro Antimicrobial activity was determined by the two-fold agar-plate dilution method as described below.
One loopful of an overnight culture of each test strain in Tripticase-soy broth (approximately 10^8 viable cells per ml) was streaked on heart infusion agar (HI-agar) containing graded concentrations of antimicrobial agents, and the minimal inhibitory concentration (MIC) was expressed in term of μg/ml after incubation at 37° C. for 20 hours.

The structures appear in SMILES notation. Values after ≈ are worked out from the molar mass of the structure shown.

As for `Nc1ccnc(/C(=N/OC2CCCC2)C(=O)NC2C(=O)N3C(C(=O)[O-])=C(C[n+]4ccccc4)CSC23)n1` (stereo not drawn) [Compound A, 7-[2-Cyclopentyloxyimino-2-(4-aminopyrimidin-2-yl)acetamido]-3-(1-pyridiniomethyl)-3-cephem-4-carboxylate (syn isomer)], the MIC amounted to 0.05 µg/mL (≈ 0.0955 µM).

`CSCO/N=C(\C(=O)NC1C(=O)N2C(C(=O)[O-])=C(C[n+]3ccccc3)CSC12)c1nccc(N)n1` (stereo not drawn) [Compound B, 7-[2-Methylthiomethoxyimino-2-(4-aminopyrimidin-2-yl)acetamido]-3-(1-pyridiniomethyl)-3-cephem-4-carboxylate (syn isomer)] registered an MIC of 0.05 µg/mL (≈ 0.097 µM).

Turning to `CCO/N=C(\C(=O)NC1C(=O)N2C(C(=O)[O-])=C(C[n+]3ccccc3)CSC12)c1nccc(N)n1` (stereo not drawn) [Compound C, 7-[2-Ethoxyimino-2-(4-aminopyrimidin-2-yl)acetamido]-3-(1-pyridiniomethyl)-3-cephem-4-carboxylate (syn isomer)], the lowest concentration to inhibit growth (MIC) was 0.05 µg/mL (≈ 0.103 µM).

On to `C#CCO/N=C(\C(=O)NC1C(=O)N2C(C(=O)[O-])=C(C[n+]3ccccc3)CSC12)c1nccc(N)n1` (stereo not drawn) [Compound D, 7-[2-Propargyloxyimino-2-(4-aminopyrimidin-2-yl)acetamido]-3-(1-pyridiniomethyl)-3-cephem-4-carboxylate (syn isomer)], for which the MIC stood at 0.05 µg/mL (≈ 0.101 µM).

Values taken from US4407798A, “Cephem compounds” (Fujisawa Pharmaceutical Co., Ltd., priority 1980, dated 1983).
